From article PMC6511062, “Preclinical candidate for the treatment of visceral leishmaniasis that acts through proteasome inhibition” (Proceedings of the National Academy of Sciences of the …, 2019)

Columns and labels:
[1] = Pharmacokinetics in male beagle dogs; type: in vivo, dog
Procedure: 5. Intrinsic clearance (CLint) […]
6. Pharmacokinetic studies.
Mouse pharmacokinetic studies were conducted in male CD-1 mice and male beagle dogs. 3 animals per group were used for each study performed.
A dose of 3 mg/kg was administered intravenously, in a bolus form to mice and infused over a 30 min period to dogs. For all the intravenous studies compound were dissolved in 5% DMSO/20% kleptose in saline.
A dose of 10 mg/kg was orally administered by gavage to the two species in a suspension of 1% methylcellulose to investigate oral pharmacokinetics.
Peripheral blood samples were obtained at 5, 15, 30 min, 1, 2, 4, 6 ,8 and 24 h after intravenous administration and 15, 30, 45 min,1, 2, 4, 6, 8 and 24 h after oral administration. Blood was 1/2 diluted with milliQ water and immediately frozen on dry ice until analysis. Quantification was performed by means of LC-MS/MS (API4000), with a lower limit of quantification of 1 ng/mL.
Pharmacokinetic parameters, namely clearance (CL), volume of distribution at steady state (Vss) and bioavailability (F%), were estimated using Phoenix, WinNonLin […]
Data analysis and calculation of pharmacokinetic parameters was performed using Phoenix, WinNonLin Version 6.3.
Following the intravenous administration, the whole blood clearance was calculated

[2] = 7 day oral repeat-dose rat toxicology and toxicokinetics; details: for tolerability: male rats, oral
Procedure: b. 7 day rat toxicology studies
A 7 day oral repeat-dose study in male rats was conducted to determine the toxicity […]
Groups of male rats (4/group toxicity; 3/group […]
up to 7 days by oral gavage. […]

[3] = tested on: trypsin activity of the L. donovani proteasome; assay: Proteasome activity assay, trypsin-like, L. donovani; type: biochemical, Leishmania donovani
Procedure: k. Proteasome activity assays
Compounds were dispensed into black 384-well assay plates (Greiner) by acoustic dispensing (LabCyte ECHO). For potency determinations, eleven-point, one in three dilution curves were generated, with a top concentration of 100 µM. Three proteasome activities were measured using a commercially available indirect enzyme-based luminescent assay kit (Promega) with Suc-LLVY-aminoluciferin, Z-LRR-aminoluciferin and Z-nLPnLD-aminoluciferin used as substrates for chymotrypsin-like, trypsin-like and caspase-like activities, respectively. In addition to proteasome samples: L. donovani and THP1-enriched proteasomes, commercially available human purified 26S proteasome (Boston Biochem) was also assessed. Proteasome final assay concentration were 0.025 mg/ml for L. donovani and THP1-enriched proteasomes and 1 nM for human purified 26S proteasome. Proteasome solution was added to the plates containing the compounds one hour before adding the proteasome substrate solution.
Substrate solution was then added and after 30 min of incubation luminescent signal was measured in an Envision reader (PerkinElmer).
Cultures of L. donovani axenic amastigotes were diluted to either 8 x 106 or 8 x 107 […]
value. […]
value) were used as negative and positive controls, respectively. […] Protein concentrations were determined by standard Bradford assays and Laemmli sample buffer was added to samples. […]

[4] = tested on: human proteasome catalytic subunits (THP-1 extracts); assay: Activity-based probe (UbiQ-018) labelling of THP-1 proteasome; type: binding; details: human THP-1 extracts, 100 µM
Procedure: Activity-Based Probe Labelling of THP1 and L. donovani proteasome
Proteasome enriched fractions from THP1 (20 µg), L. donovani (10 µg) and L. donovani
µM for 1 h. Proteasome enriched fractions were also incubated with DMSO as control.
For all proteasome labelling experiments, the active-site probe Me4BodipyFL-Ahx3Leu3VS (UbiQ-018) was used at final concentration of 500 nM in sucrose buffer (50 mM Tris buffer pH 7.5, 5 mM magnesium chloride, 1 mM EDTA, 50 mM NaCl, 250 mM sucrose, 2 mM ATP, 1 mM DTT). Proteasome enriched fractions treated with
DMSO or test compounds, were incubated with the probe for 2h at RT. Samples were then denatured by addition of Laemmli sample buffer, heated to 95°C for 10 min and separated by electrophoresis on a 15% SDS-PAGE acrylamide gel. Following separation, gels were scanned in the fluorescein channel of a ChemiDoc reader (λ excitation/emission = 480/530 nm). Fluorescent proteins were excised and MALDI– TOF analysis carried out by the FingerPrints Proteomics service at the University of

TA1537 = assay: Ames test, strain TA1537
Procedure: oxidative metabolism system (S9-mix). The maximum concentration tested and […]
Compound 7a was tested in a bacterial mutation screening assay (Ames test) with Salmonella typhimurium TA1535, TA1537, TA98, TA100 and Escherichia coli WP2uvrA(pKM101) in the presence and absence of an exogenous mammalian […]
The bacterial mutation screening assay was a plate incorporation test carried out as previously described15 and according to current methodology. […]

[5] = male, beagle, whole blood, dog, 3 mg/kg iv 0.5 h infusion

## O=C(Nc1ccc(F)c(-c2ccn3c(N4CCOCC4)cnc3n2)c1)N1CCCC1 [Compound 8]
[1]; dog
  blood clearance: 30 mL/min per kilogram
[1]; dog, 3 mg/kg iv
  Cl (%LBF): 53%
[1]; dog, 3 mg/kg iv 0.5 h infusion, 3 mg/kg
  Vss: 1.3 L/kg
[1]; male, beagle, dog, whole blood, iv, 3 mg/kg, dog, 3 mg/kg iv 0.5 h infusion, read-out: Vss
  Vd: 1.34 ± 0.381 L/kg
[1]; [5]
  clearance: 29.6 ± 6.06 mL/min/kg
  half-life: 31.2 ± 4.8 min
[1]; whole blood, Beagle male dog, 10 mg/kg po, read-out: F (oral bioavailability)
  bioavailability: 46%
[2]; 300 mg/kg/day
  margin to the predicted human blood AUC0-24: 37 fold
[2]; 1000 mg/kg/day
  tolerability: not tolerated
[2]; 100 and 300 mg/kg/day, 7 days
  tolerability: tolerated over the 7 days
[2]; doses up to 300 mg/kg
  rat 7-d toxicology study outcome: no significant safety or tolerability liabilities were detected
[2]; male, rat, in vivo, 300 mg/kg, 7 days
  safety margin: at least 37 fold
[3]
  effect on trypsin activity: no effect
[4]
  UbiQ-018 labelling of proteasome subunits: no effect
TA1537; with S9-mix, dose level 50 per plate
  Mean revertants per plate: 18.0
TA1537; with S9-mix, dose level 150 per plate
  Mean revertants per plate: 14.5
TA1537; with S9-mix, dose level 500 per plate
  Mean revertants per plate: 21.0
TA1537; with S9-mix, dose level 1500 per plate
  Mean revertants per plate: 11.0
TA1537; with S9-mix, dose level 2500 per plate
  Mean revertants per plate: 13.5
TA1537; with S9-mix, dose level 5000 per plate
  Mean revertants per plate: 8.5
TA1537; without S9-mix, dose level 50 per plate
  Mean revertants per plate: 14.0
TA1537; without S9-mix, dose level 150 per plate
  Mean revertants per plate: 9.5
TA1537; without S9-mix, dose level 500 per plate
  Mean revertants per plate: 16.0
TA1537; without S9-mix, dose level 1500 per plate
  Mean revertants per plate: 12.5
TA1537; without S9-mix, dose level 2500 per plate
  Mean revertants per plate: 14.5
TA1537; without S9-mix, dose level 5000 per plate
  Mean revertants per plate: 6.5
